Assay results published in US20090111104A1, “Method for Monitoring Hydrolytic Activity” (Fluorotechnics Pty Limited, priority 2005, published 2009).
One block for each molecule: values may come before it.

What was measured:
BSA [1] = biological target: T1, BSA (Bos taurus, UniProt P02769); assay: Real-time monitoring of chymotrypsin digestion of BSA using epicocconone; assay type: biochemical, bovine; settings: bicine pH 7.8, 30° C., chymotrypsin 1:30
T1 construct: purchased Sigma-Aldrich A3059
T1 sequence (P02769 25-607): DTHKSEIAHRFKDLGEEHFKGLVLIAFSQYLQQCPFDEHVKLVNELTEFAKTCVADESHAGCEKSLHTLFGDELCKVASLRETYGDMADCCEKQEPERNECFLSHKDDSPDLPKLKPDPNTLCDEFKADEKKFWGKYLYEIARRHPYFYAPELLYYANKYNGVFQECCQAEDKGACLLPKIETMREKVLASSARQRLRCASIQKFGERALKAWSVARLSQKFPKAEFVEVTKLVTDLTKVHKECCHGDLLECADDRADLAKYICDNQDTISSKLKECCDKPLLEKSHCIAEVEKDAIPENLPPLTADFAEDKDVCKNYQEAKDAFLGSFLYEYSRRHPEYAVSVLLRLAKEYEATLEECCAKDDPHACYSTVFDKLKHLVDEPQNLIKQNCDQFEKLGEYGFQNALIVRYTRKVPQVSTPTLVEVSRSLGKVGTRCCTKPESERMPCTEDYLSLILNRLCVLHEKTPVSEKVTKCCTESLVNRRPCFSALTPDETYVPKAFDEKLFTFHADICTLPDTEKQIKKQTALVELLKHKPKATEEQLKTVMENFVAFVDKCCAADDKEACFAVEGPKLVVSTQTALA
Experimental: • 1. Chymotrypsin digestion was carried out in bicine buffer. • 2. BSA was prepared in 10 mg/mL in 50 mM bicine buffer. • 3. One hundred microliter of the BSA sample was used for chymotrypsin digestion.
• 1. The BSA sample (100 μL) was reduced by adding 5 μL of DTT stock and heating (80° C.) for 10 min. • 2. The sample was alkylated by adding the iodoacetamide (4 μL) stock at room temperature for 45 min-1 hr. • 3. The remaining iodoacetamide of the sample was neutralized by adding DTT (20 μL) and incubating room temp for 45 min-1 hr.
• 1. The reduced and denatured BSA sample from 2.2 was diluted 10-fold in 50 mM bicine buffer (25 μL+225 μL bicine buffer). BSA molar concentration was calculated to be approx. 6 μM. • 2. One hundred microliter of the sample (step 1) was prepared in duplicates and added to a microtiter plate. Controls included a bicine-based digestion buffer, a chymotrypsin sample only and an undigested BSA sample (no chymotrypsin). • 3. Epicocconone stock solution was diluted 100-fold in 50 mM bicine and 100 μL added to each well. The final concentration epicocconone was 12 μM. At this point in time, it required approximately 10 min to get appropriate FluoStar setting conditions. • 4. 2 μL of CaCl2 was added • 5. […] Fluorescence development was monitored in real time every 2 minutes up to 6 hours using FluoStar (Ex/Em=540/630−12). […]

BSA [2] = biological target: T1, BSA; assay: SDS-PAGE validation of BSA proteolysis in the presence of different fluorophores (Example 7); assay type: biochemical, bovine; settings: after 120 minutes
Text: The normalised data were used for Prism analysis for obtaining the rate constants. In each case, the protein with fluorophore (open squares) is fitted to a single phase exponential decay (Y=span*exp(−kX)+plateau) and the value for k used as the fixed value for k1 in a two phase exponential decay (Y=span1*exp(−k1X)+span2*exp(−k2X)+plateau) for the protein plus papain (open circles). Through this method it was possible to measure the rate constants for hydrolysis and predict the time point for complete hydrolysis. […] It can be seen from this figure that the bands associated with the protein have disappeared after 120 minutes and that only a faint band for residual papain or trypsin can be seen. In some cases there are also some larger peptide fragments remaining after digestion that are resistant to further hydrolysis.

apparent first order rate constant (BSA [1]): 0.0447 min⁻¹
Molecule: chymotrypsin

digestion of BSA by SDS-PAGE (BSA [2]): complete digestion
B1: papain: Non-specific cysteine protease, Sigma-Aldrich P4762 (protein, UniProt P00784 134-345, looked up)
Papain: IPEYVDWRQKGAVTPVKNQGSCGSCWAFSAVVTIEGIIKIRTGNLNEYSEQELLDCDRRSYGCNGGYPWSALQLVAQYGIHYRNTYPYEGVQRYCRSREKGPYAAKTDGVRQVQPYNEGALLYSIANQPVSVVLEAAGKDFQLYRGGIFVGPCGNKVDHAVAAVGYGPNYILIKNSWGTGWGENGYIRIKRGTGNSYGVCGLYTSSFYPVKN
